Structures can show the parent of a compound that is named as a salt. Where two headings read alike, the source gives them in different places.
Target: T1, CYP11B2 in NCI-H295R (Homo sapiens, UniProt P19099)
T1 construct: contain 5 steroidogenic CYP450 enzymes, including 17-alpha-hydroxylase, CYP11B1 and CYP11B2; endogenous in cells; host or cells: NCI-H295R
T1 sequence (P19099 25-503): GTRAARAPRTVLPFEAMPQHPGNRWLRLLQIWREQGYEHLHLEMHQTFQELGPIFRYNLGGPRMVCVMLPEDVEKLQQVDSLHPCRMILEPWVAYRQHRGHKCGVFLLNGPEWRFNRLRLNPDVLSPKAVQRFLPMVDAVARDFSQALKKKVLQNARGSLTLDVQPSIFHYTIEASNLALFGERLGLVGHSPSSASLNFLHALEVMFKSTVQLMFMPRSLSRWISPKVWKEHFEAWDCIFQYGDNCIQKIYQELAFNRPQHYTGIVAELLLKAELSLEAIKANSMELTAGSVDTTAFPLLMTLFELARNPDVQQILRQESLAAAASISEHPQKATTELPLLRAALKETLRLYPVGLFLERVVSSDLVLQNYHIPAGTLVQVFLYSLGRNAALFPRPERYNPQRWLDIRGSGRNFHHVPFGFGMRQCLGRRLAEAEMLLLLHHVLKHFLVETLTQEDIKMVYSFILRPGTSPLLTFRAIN
Assay: NCI-H295R cells, CYP11B2 inhibition (substrates corticosterone B or deoxycorticosterone DOC)
Type: cell-based
Conditions: for inhibition at 2.5 µM: NCI-H295R
Procedure: For testing inhibitors, a preincubation for one hour was performed first, followed by starting the enzyme reactions by adding substrate (500 nM).
A) Seeding: The cell lines were grown and passaged until a confluent cell lawn had formed. By tryptic treatment, the cell material of at least two culture dishes was obtained, and the number of cells determined by means of a CASY TT cell counter (150 μl capillary). […] With the cell material of two confluently grown culture dishes, two 24-well plates could be coated. After 24 hours, the cells had grown on, and after another 24 hours' stimulation phase with a solution containing potassium ions (final concentration: 20 mM KCl), could be employed for the test.
In the substrate solutions for the examinations on CYP11B2, the corticosterone substrate solution (final concentration in the test: 500 nM) consisted of 38.4 μl of [1,2-^3H(N)]corticosterone (1 mCi/ml, 76.5 Ci/mmol; NEN-Perkin-Elmer) in ethanol, 39.0 μl of unlabeled corticosterone solution (0.5 mM in ethanol) and 122.6 μl of ethanol. Deoxycorticosterone, which was also employed in a final concentration of 500 nM, was composed of 18 μl of [^14C]-labeled deoxycorticosterone (60.0 mCi/mmol; 0.5 nCi/μl) in ethanol in admixture with 54 μl of unlabeled substance (0.5 mM in ethanol) and 228 μl of ethanol.
Of this solution, 5 μl each was added to the samples.
Then, the 24-well plate was stored in a CO2 incubator at 37° C. and […]. The incubation time was 3 hours when deoxycorticosterone was used as the substrate, 24 Hours for corticosterone, and 48 hours for deoxycortisol.
Test stop: After elapse of the incubation times, the plates were briefly swung, and then the content of the wells was removed quantitatively if possible and inactivated by mixing with 1000 μl of dichloromethane in a 2 ml Eppendorf vessel. After 10 minutes of shaking, it was centrifuged for phase separation, and the […], organic phase was transferred into a 1.5 ml Eppendorf vessel.
After evaporating the solvent over night under a hood, the residue was taken up in 10 μl of chloroform and applied to the center of the concentration zone of an HPTLC plate.
For detecting the steroids on the TLC, the radiation-exposed film was scanned in the phosphoimager FLA 3000 after two days.
For the substrate corticosterone, equation 5 was valid: […]

For `Fc1ccc2c(c1)CC/C2=C/c1cccnc1` [Compound 5b, 3-[(Z)-(5-Fluoro-2,3-dihydro-1H-indane-1-ylidene)methyl]pyridine Hydrochloride], the IC50 (K+ stimulation 20 mM, substrate [3H]-corticosterone (B) 500 nM, incubation 24 h, read-out: NCI-H295R CYP11B2 B [IC50]) was 17 µM, the inhibition at 2.5 µM (read-out: NCI-H295R CYP11B2 B % inhibition) was 6.9% and the inhibition at 2.5 µM (read-out: NCI-H295R CYP11B2 DOC % inhibition) was 89.2%. It also gave an IC50 (substrate [14C]deoxycorticosterone (DOC) 500 nM, incubation 3 h, read-out: NCI-H295R CYP11B2 DOC [IC50]) of 0.156 µM.

Reference: patent US20090105278A1, “Selective inhibitors of human corticosteroid syntheses” (Universitat Des Saarlandes, priority 2004, published 2009)
